This note sets out measurements from patent US20220202882A1, “EFFECT OF COMBINATION OF BIFIDOBACTERIUM AND BERBERINE ON PRE-DIABETES AND TYPE 2 DIABETES” (The Fourth Military Medical University, priority 2018, published 2022).

This test deals with pre-diabetic and type 2 diabetes mellitus patients. Nature of the test: Clinical trial: fasting plasma glucose (FPG). It is filed as in vivo, human. The following applies: for Effect on fasting plasma glucose level (in words) / Post-treatment FPG - pre-treatment FPG, mean value: 16 weeks of treatment; for Effect on fasting plasma glucose level (in words): Kruskal-Wilcox test; for Post-treatment FPG - pre-treatment FPG, mean value / Post-treatment FPG, mean value / Pre-treatment FPG, mean value: FAS; for Post-treatment FPG, mean value: after 16 weeks of treatment; for Pre-treatment FPG, mean value: baseline before treatment. Here is the method: From June 2015 to October 2018, a double-blind, randomized, and parallel-controlled trial, studying the effects of the combined use of Bifidobacterium and berberine on pre-diabetic and type 2 diabetes mellitus patients, was conducted in 10 research centers in Xi'an, Yan'an and Shangluo of Shaanxi province, etc., including the First Affiliated Hospital of the Fourth Military Medical University. 3) Diagnosed with impaired glucose tolerance or type 2 diabetes mellitus (5.6≤fasting plasma glucose (FPG)<8.0 mmol/L at V1 stage; 6.1≤fasting plasma glucose (FPG)<8.0<mmol/L or 7.8≤2-hour postprandial venous blood glucose (2 h-PPG)<17 mmol/L at V2 stage, please see V1 and V2 in Table 1 below); The trial included an enrollment stage of 2 weeks and a treatment stage of 16 weeks. After passing the first visit 1 (see V1 in Table 1), the subjects entered the enrollment stage, i.e., 2 weeks of lifestyle intervention, followed by a re-screening (see V2 in Table 1). The subjects were subjected to a 16-week course of treatment after passing the screening. See Table 1 for the detailed screening parameters. After the enrollment stage, the baseline data of the 300 successfully enrolled subjects were collected. Meanwhile, the subjects started to receive lifestyle guidance, and were randomly divided into four groups for 16 weeks of treatments. 1) Bifidobacterium group: the subjects were administered with Bifidobacterium capsules (Livzon Pharmaceutical Group Inc., batch no.: 20141013), 0.35 g/capsule, each capsule containing 50,000,000 viable bacteria (Bifidobacterium adolescentis DM8504), 2 capsules/time, 2 times/day, plus berberine placebo tablets (Northeast Pharma Group Shenyang First Pharma Co., Ltd., Lot no.: 20150101, containing 80.2% microcrystalline cellulose, 9.4% pregelatinized starch, 6.4% sodium carboxymethyl starch, 1% magnesium stearate, and 3% copovidone), 0.1 g/tablet, 5 tablets/time, 2 times/day. 2) Berberine group: the subjects were administered with berberine tablets (Northeast Pharma Group Shenyang First Pharma Co., Ltd., Lot no.: 130917, each tablet weighted 0.165 g and contained 0.1 g active berberine ingredient (berberine hydrochloride), with the same excipients as the placebo tablets), 5 tablets/time, 2 times/day, plus Bifidobacterium placebo capsules (Livzon Pharmaceutical Group Inc., Lot no.: 141001, specifically containing 0.348 g spray-dried lactose, and 0.002 g magnesium stearate), 0.35 g/capsule, 2 capsules/time, 2 times/day. 3) Combination Group: the subjects were administered with Bifidobacterium capsules, 0.35 g/capsule, each capsule containing 50,000,000 viable bacteria (B. adolescentis DM8504), 2 capsules/time, 2 times/day, plus berberine tablets, 0.1 g/tablet, each tablet containing 0.1 g active berberine ingredient (berberine hydrochloride), 5 tablets/time, 2 times/day. 4) Control group: the subjects were administered with Bifidobacteria placebo capsules, 0.35 g/capsule, 2 capsules/time, 2 times/day, plus berberine placebo tablets, 0.1 g/tablet, 5 tablets/time, 2 times/day. Bifidobacterium capsules were taken after meals and berberine tablets were taken before meals. After the sample testing was finished, 1) Chi-Squared test and t-test were used to evaluate the intergroup balance of the baseline data including the demographic characteristics and pre-treatment indicators, wherein the baseline data referred to those collected at the second visit, before the formal administration, the data collected at the first visit on the enrollment stage were used instead if the data at the second visit was lacking; 2) two-way disordered CM-CH11, Kruska-Wilcox test, etc. were used for analysis and intergroup comparison of pre- and post-treatment indicators such as fasting plasma glucose (FPG), HbA1c, plasma glucose at 2 hours post OGTT (2-h PPG), blood pressure, blood lipids, body weight and BMI; 3) adverse events and hypoglycemia events were described in terms of the type, frequency and relevance with the drugs, for safety evaluation. […]

Where a name gives a salt, the structure may show the parent alone.

Turning to `COc1ccc2cc3[n+](cc2c1OC)CCc1cc2c(cc1-3)OCO2` [Berberine, berberine hydrochloride], the “Effect on fasting plasma glucose level (in words)” value was “lowered the fasting plasma glucose level significantly”; the “Post-treatment FPG - pre-treatment FPG, mean value” was -0.2450 mmol/L; the “Post-treatment FPG, mean value” is 6.1300 mmol/L; the “Pre-treatment FPG, mean value” came to 6.4700 mmol/L.
On to Bifidobacterium, for which the “Effect on fasting plasma glucose level (in words)” value was “no evident effect”; the “Post-treatment FPG - pre-treatment FPG, mean value” worked out at 0.0282 mmol/L; the “Post-treatment FPG, mean value” stood at 6.4300 mmol/L; the “Pre-treatment FPG, mean value” was found to be 6.4000 mmol/L.
